From patent US20090209633A1, “Treatment of Pain With Resiniferatoxin and Related Analogs” (priority 2006, published 2009)
Where “and” joins values, the source holds several entries; their conditions need not be identical. Identical values can stand only once.

Columns and labels:
[1] = molecular target: T1, cloned TRPV1 (Rattus norvegicus, UniProt O35433); test: Single-channel currents in excised (outside-out) patches from oocytes expressing cloned TRPV1; format: cell-based; details: for single-channel conductance / single-channel current amplitude: excised patches, cloned TRPV1; for Po: outside-out/excised patches, RTX, capsaicin 100 nM
T1 construct: expressed in transfected cells; host or cells: Xenopus laevis oocytes injected with TRPV1 cRNA
Experimental: Oocytes were obtained by an abdominal incision after anaesthetizing the frog by immersion in a 0.05% solution of 3-aminobenzoic acid ethyl ester (MS222). Animals were killed by a subcutaneous injection of a 2% solution of MS222 according to NIH guidelines. One day after separating the oocytes from the follicular layer, 50-70 nl TRPV1 cRNA was injected using a Drummond Nanoject (Drummond Scientific Co., Broomall, Pa., USA). Oocytes were used for recording from 3 days after the injection. Double-electrode voltage clamp was performed using a Warner amplifier (Warner Instruments, Hamden, Conn., USA). Data were digitized and stored on videotape or directly stored on the computer using a LabView interface (National Instruments, Austin, Tex., USA). Experiments were performed at 21-23° C. Oocytes were placed in a Perspex chamber superfused (5-10 ml min^−1) with Ca^2+-free Ringer solution containing (mM): NaCl 100, KCl 2.5 and Hepes 5; pH adjusted to 7.35 with NaOH. Current-voltage relationships were measured using 1-s voltage ramps from −80 to +80 mV.
For single-channel recording in cell-attached patches from DRG neurons, the bath solution contained (mM): potassium gluconate 140, KCl 2.5, MgCl2 1, Hepes 5 and EGTA 1.5; pH adjusted to 7.35 with NaOH. The patch pipettes were made from glass capillaries (Drummond, Microcaps), coated with Sylgard (Dow Corning, Midland, Mich., USA). For cell-attached patches, the patch pipettes were filled with a solution that contained (mM): sodium gluconate 140, NaCl 10, MgCl2 1, Hepes 5 and EGTA 1.5; pH adjusted to 7.35 with NaOH. While recording from cell-attached patches, in order to avoid differences in the driving force because of the differences in the membrane potential, the external NaCl was replaced by an equal amount of KCl in order to nullify the membrane potential. For outside-out patches, the pipette solution contained (mM): sodium gluconate 90, NaCl 10, BAPTA 10, Hepes 10, K2ATP2 and GTP 0.25; pH adjusted to 7.35 with NaOH. The bath solution contained (mM): sodium gluconate 100, KCl 2.5, MgCl2 1, Hepes 5 and EGTA 1.5; pH adjusted to 7.35 with NaOH. All the experiments were performed at room temperature (21-23° C.). Agar-bridge electrodes were used to avoid changes in junction potential. The currents were recorded using a WPC 100 (Warner Instruments) or Axopatch 2B (Axon Instruments, Union City, Calif., USA) patch-clamp amplifier. Data were filtered at 10 kHz (Axopatch 2B), digitized (VR-10B, Instrutech Corp.), and stored on videotapes. For the analysis of amplitude and open probability (Po), the data were filtered at 2.5 kHz (−3 db frequency with an 8-pole low-pass Bessel filter, Warner Instruments) and digitized at 5 kHz. For dwell-time analysis, the data were filtered at 10 kHz and digitized at 50 kHz.
Single-channel analysis. Single-channel current amplitude and Po were estimated from all-point current amplitude histograms (Channel 2 software kindly provided by Michael Smith, Australian National University, Can berra, Australia) and fitted to Gaussian densities (Origin, OriginLab Corp., Northampton, Mass., USA). For current-voltage relationships, the amplitudes were determined by fitting a Gaussian curve to an all-point histogram. Po was determined using unedited segments of data, which were typically 1-5 min long. For multiple channel patches, the mean Po was measured as nPo, where n is the number of channels in the patch. Chord conductance was measured at +60 or −60 mV. Slope conductance was determined by linear fits to current-voltage data between +20 and +100 mV or −20 and −100 mV.
Next we recorded single-channel currents from the cloned TRPV1 in excised patches. […] (Premkumar et al. 2002.)
Next we recorded single-channel currents using outside-out patches from oocytes expressing TRPV1.

[2] = system: DRG neurons; test: Membrane depolarization and action potentials in DRG neurons (current clamp); format: cell-based, rat
Experimental: Primary DRG neuronal cultures were prepared from embryonic day 18 (E18) rat embryos. Adult pregnant rats were killed with an overdose of isoflurane. DRG were dissected and the cells were dissociated by triturating with a fire-polished glass pipette. Cells were cultured in Neurobasal medium (Life Technologies, Buffalo, N.Y., USA), supplemented with 10% fetal bovine serum (FBS), and grown on poly-D-lysine-coated glass coverslips. Cells were used from 5 to 15 days after plating. Small diameter (<30 μm) rounded neurons were selected for patch-clamp experiments. […] The Giga-seal patch-clamp technique was used to record whole-cell currents. For perforated-patch recordings, the bath solution contained (mM): sodium gluconate 140, KCl 2.5, Hepes 10, MgCl2 1 and ethylene glycol bis(2-aminoethyl ether)-N,N,N′N′-tetraacetic acid (EGTA) 1.5 (pH adjusted to 7.35 with NaOH), and the pipette solution contained (mM): sodium gluconate 130, NaCl 10, KCl 2.5, Hepes 10, MgCl2 1, EGTA 1.5 and 240 μg/ml^−1 amphotericin B (pH adjusted to 7.35 with NaOH). For current-clamp experiments the pipette solution contained (mM): potassium gluconate 130, NaCl 10, MgCl2 1, EGTA 0.2, K2ATP 1 and Hepes 10; pH adjusted to 7.35 with NaOH. Extracellular solution for current- and voltage-clamp experiments contained (mM): NaCl 140, KCl 4, MgCl2 1 and Hepes 10; pH adjusted to 7.35 with NaOH. Currents were recorded using a WPC 100 patch-clamp amplifier (E.S.F. Electronic, Goettingan, Germany). Data were filtered at 10 kHz, digitized (VR-10B, Instrutech Corp., Great Neck, N.Y., USA) and stored on videotapes or directly stored in the computer using a LabView interface. For analysis of whole-cell currents, data were filtered at 1 kHz (−3 db frequency with an 8-pole low-pass Bessel filter, Warner Instruments, LPF-8) and digitized at 2 kHz.
To attribute a physiological significance to the slow and irreversible action of RTX, we recorded membrane depolarization in current-clamp conditions. Action potentials in response to a current injection (10-100 pA) were recorded in order to confirm that the neurons were excitable (inset to FIGS. 9A and B). The average membrane potential was −57.1±1 mV (n=42).

[3] = oocytes expressing TRPV1, +60 mV

T1 sequence (O35433 whole entry): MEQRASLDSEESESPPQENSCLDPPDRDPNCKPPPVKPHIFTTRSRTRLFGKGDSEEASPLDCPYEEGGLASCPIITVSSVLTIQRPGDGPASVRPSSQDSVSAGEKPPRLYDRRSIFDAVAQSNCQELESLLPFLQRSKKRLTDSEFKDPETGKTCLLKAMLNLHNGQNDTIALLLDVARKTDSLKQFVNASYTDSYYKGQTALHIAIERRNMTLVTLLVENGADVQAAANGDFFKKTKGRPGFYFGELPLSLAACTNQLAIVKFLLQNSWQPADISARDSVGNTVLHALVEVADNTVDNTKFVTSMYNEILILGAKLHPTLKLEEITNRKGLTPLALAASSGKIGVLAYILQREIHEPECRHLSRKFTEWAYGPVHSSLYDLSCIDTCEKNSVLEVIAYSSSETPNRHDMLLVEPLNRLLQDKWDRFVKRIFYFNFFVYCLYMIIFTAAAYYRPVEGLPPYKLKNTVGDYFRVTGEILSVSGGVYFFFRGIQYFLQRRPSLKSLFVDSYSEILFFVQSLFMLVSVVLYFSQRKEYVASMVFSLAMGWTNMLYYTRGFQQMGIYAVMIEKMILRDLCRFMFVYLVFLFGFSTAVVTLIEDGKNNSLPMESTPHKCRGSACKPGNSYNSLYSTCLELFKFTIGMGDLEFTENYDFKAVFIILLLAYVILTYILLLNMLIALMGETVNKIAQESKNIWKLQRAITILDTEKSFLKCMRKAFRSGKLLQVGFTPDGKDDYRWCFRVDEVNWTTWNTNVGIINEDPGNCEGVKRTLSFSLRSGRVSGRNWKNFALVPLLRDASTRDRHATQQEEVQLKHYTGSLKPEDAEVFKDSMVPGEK

Compound	single-channel conductance ([1]; +60 mV) [pS]	single-channel current amplitude ([1]; +60 mV) [pA]	Po ([1]; +60 mV)	current amplitudes of multiple conductance states [1, 3]	single-channel conductance of multiple conductance states [1, 3]	single-channel conductance ([1]; −60 mV) [pS]	single-channel current amplitude ([1]; −60 mV) [pA]	Po ([1]; −60 mV)	membrane depolarization ([2]; RTX 3 pM) [mV]	number of action potentials ([2]; RTX 3 pM)	number of action potentials ([2]; RTX 10 pM)	membrane depolarization ([2]; RTX 10 nM) [mV]	number of action potentials ([2]; RTX 10 nM)	membrane depolarization ([2]; RTX 1 μM) [mV]	number of action potentials ([2]; RTX 1 μM)	membrane depolarization ([2]; RTX 10 μM (so in the source)) [mV]	membrane depolarization ([2]; RTX 100 μM (so in the source)) [mV]	number of action potentials ([2]; RTX ˜100 pM)	membrane depolarization ([2]; capsaicin 30 nM) [mV]	number of action potentials ([2]; capsaicin 30 nM)
C=C(C)[C@]12C[C@@H](C)[C@@]34O[C@](Cc5ccccc5)(O[C@@H]1[C@@H]3C=C(COC(=O)Cc1ccc(O)c(OC)c1)C[C@]1(O)C(=O)C(C)=C[C@@H]41)O2 [RTX, resiniferatoxin]	103.3±0.83	6.19±0.05	0.88±0.03	3.5 pA and 5.3 pA and 6.9 pA	58 pS and 88 pS and 115 pS	43±2.8	2.59±0.17	0.83±0.05	10.6±1.6	16.6±8.3	24.6±6.9	32.2±5.1	24.5±8.6	52±2	14.6±4.6	14.1±1.5	16.3±3	77.8±11.8	–	–
COc1cc(CNC(=O)CCCC/C=C/C(C)C)ccc1O [capsaicin]	95.3±1.7	5.71±0.1	0.4±0.03	–	–	41.8±1.3	2.52±0.08	0.14±0.01	–	–	–	–	–	–	–	–	–	–	13.3±3.5	54.2±10.5
